# Experiment: Solubility in water at 25 °C (weight recovered undissolved and weight dissolved after stirring 5 hours)
# Type: physicochemical
# Settings: for Weight Recovered: undissolved portion, 10 grams in 100 ml of water, 5 hours stirring; for solubility thermodynamic at 5 h: water, head prints 10 ml, text prints 100 ml
# Protocol: Ten grams of Compound 1 of this invention and 10 grams of Comparative Compound (I) disclosed (as illustrative compound 3) in Japanese Patent Application No. 41221/78 for comparative purposes were each separately dissolved in 100 ml of water and stirred for 5 hours while maintaining a temperature of 25° C. The undissolved portion was recovered by filtration and the weight of the recovered material was determined after drying. Comparative Compound (I)
# The weights of the compounds recovered and the amounts dissolved in 100 ml of water at 25° C. calculated on the basis of the weights recovered are shown in Table 1.
Weight Recovered [grams],solubility thermodynamic at 5 h [mg/mL],solubility in water relative to Comparative Compound (I) (in words),Structure (SMILES)
8.0,20,,"C=CS(=O)(=O)CC(=O)NCCNC(=O)CS(=O)(=O)C=C [Comparative Compound (I), reference compound]"
0,> 100,much better solubility in water,C=CS(=O)(=O)C(CCc1ccc(S(=O)(=O)O)cc1)S(=O)(=O)C=C [Compound 1]
